The conditions of data set [1]: cited from earlier work.
Data set [2] can be described thus: Solubility of L-carnitine tartrate in ethanol in relation to the water content of the ethanol (FIG. 1). In kind it is physicochemical. The settings on record: ethanol comprising less than 5% water / no or low amounts of water. The text has this:
Without being bound to theory, it is assumed that the strong improvements of the inventive process are associated with the low solubility of L-carnitine tartrate in ethanol comprising no water or only low amounts of water. […] The relationship of L-carnitine tartrate solubility to the water content of ethanol is shown in the scheme of FIG. 1. […] Thereby, high yields are obtained even when avoiding extreme temperatures for heating and cooling.

With `C[N+](C)(C)C[C@H](O)CC(=O)[O-].O=C(O)C(O)C(O)C(=O)O` [L-carnitine tartrate, L-carnitine L-tartrate], in data set [1] (normal air moisture, disclosed in EP 0 434 088 A1), the stability during storage entry was “stable”. The solubility in ethanol entry in data set [2] (L-tartrate) is “decreased dramatically”; in data set [2] (listed as carnitine tartrate, L-tartrate), “very low”.

On to `C[N+](C)(C)CC(O)CC(=O)[O-]` [L-carnitine, 3-hydroxy-4-trimethylammonio-butanoate], for which, in data set [1] (pure carnitine), the hygroscopicity result was “highly hygroscopic”. The solubility in ethanol entry in data set [2] is reported as “almost insoluble”.

Source of the values: patent US8779188B2, “Process for the production of L-carnitine tartrate” (Lonza Ltd., priority 2010, dated 2014).
